Results published in patent US7429482B2, “Screening tools for discovery of novel anabolic agents” (United States of America as represented by the Department …, priority 2005, dated 2008).

Tests used:
[1] = system: IGFBP-4; test: Chronic denervation: IGFBP-4 mRNA in gastrocnemius (qPCR); type: in vivo, rat
Description: Male Wistar rats weighing 200-250 gm (Taconic Farms, Germantown, N.Y.) were provided food and water ad libitum and were housed in a temperature and humidity controlled environment providing a 12:12 hour day-night cycle. For surgical procedures, animals were anesthetized with ketamine/xylazine. The left sciatic nerve was exposed by blunt dissection, and a 1 to 2 mm piece of this nerve was excised just below the level of the femoral head. A sham surgery was performed on the right hind limb in which the sciatic nerve was exposed but was not transected. Twenty eight days later, animals were anesthetized, and Alzet pumps were implanted subcutaneously on the back. […] Testosterone levels after replacement were approximately 15 nM, a high-normal range for rats of this age. […]
Total RNA was extracted from skeletal muscle (20 mg) by homogenization in guanidine thiocyanate using a Polytron followed by extraction of total RNA with phenol-chloroform as described by (Chomczynski and Sacchi, Anal Biochem 162: 156-159, 1987). […] Total RNA was eluted and quantified by absorbance at 260 nm. […] Levels of gene expression in the denervated muscle were expressed as fold induction relative to muscle from the sham-denervated leg of animals administered vehicle. […] Fold-induction was determined using the 2^−ΔΔCt method, using expression of 18S RNA as the normalization control. […]

[2] = system: myogenin; test: Chronic denervation: myogenin mRNA in gastrocnemius (qPCR); type: in vivo, rat
Description: Male Wistar rats weighing 200-250 gm (Taconic Farms, Germantown, N.Y.) were provided food and water ad libitum and were housed in a temperature and humidity controlled environment providing a 12:12 hour day-night cycle. For surgical procedures, animals were anesthetized with ketamine/xylazine. The left sciatic nerve was exposed by blunt dissection, and a 1 to 2 mm piece of this nerve was excised just below the level of the femoral head. A sham surgery was performed on the right hind limb in which the sciatic nerve was exposed but was not transected. Twenty eight days later, animals were anesthetized, and Alzet pumps were implanted subcutaneously on the back. […] Testosterone levels after replacement were approximately 15 nM, a high-normal range for rats of this age. Animals were sacrificed 3, 7 or 28 days after implantation of the miniosmotic pumps by inhalation of carbon dioxide. Gastrocnemius muscles were excised and weighed, then flash frozen on dry ice and stored at −80° C.
Total RNA was extracted from skeletal muscle (20 mg) by homogenization in guanidine thiocyanate using a Polytron followed by extraction of total RNA with phenol-chloroform as described by (Chomczynski and Sacchi, Anal Biochem 162: 156-159, 1987). Total RNA was further enriched using RNAeasy minicolumns (Qiagen, Valencia, Calif.). This procedure included digestion of contaminating DNA on the column with RNAse-free DNAse (Qiagen). Total RNA was eluted and quantified by absorbance at 260 nm. One μg of total RNA was used to prepare a cDNA library by reverse transcription (High Capacity cDNA Archive Kit, Applied Biosystems). Libraries were diluted 25-fold with water. Real time PCR was performed Taqman 2×PCR buffer (Applied Biosystems) using an Applied Biosystems 7500 thermocycler. Levels of gene expression in the denervated muscle were expressed as fold induction relative to muscle from the sham-denervated leg of animals administered vehicle. […] Fold-induction was determined using the 2^−ΔΔCt method, using expression of 18S RNA as the normalization control. Primers and probes used for 18S RNA, MuRF1 and myostatin were obtained through the assays by Design service of Applied Biosystems and had the sequences are shown in Table 3; probes were 5′ labeled with FAM and 3′ modified with a non-fluorescent quencher. All other primer-probe combinations used were those contained in ABI Assay on Demand kits.

[3] = system: MAFbx; test: MAFbx expression in gastrocnemius of rats infused with dexamethasone with or without testosterone (qPCR); type: in vivo; details: rat, dexamethasone plus testosterone 28 mg/kg/day, 7 days
Description: Muscle was flash frozen on dry ice after excision. Total RNA was isolated by phenol:chloroform extraction (Chomczynski and Sacchi, Anal Biochem 162: 156-159, 1987) and further enriched using RNAeasy minicolumns (Qiagen) with digestion on the column with RNAse-free DNAse (Qiagen).
RNA was quantified by absorbance at 260 nm. One microgram of total RNA was used to prepare cDNA libraries using the High Capacity cDNA Archive Kit (Applied Biosystems, Foster City, Calif.). Libraries were diluted 25-fold with water. Real time PCR was performed using Taqman 2×PCR buffer (Applied Biosystems) and an Applied Biosystems 7500 thermocycler. Data were normalized relative to that for 18S RNA. Relative changes in expression were determined using the 2^−ΔΔCt method. Taqman Assay on Demand probes (Applied Biosystems) were used for all assays except rat 18S RNA, which was quantified using the following […]: Forward: […] (SEQ ID NO:15); Reverse: […] (SEQ ID NO:16); Probe: FAM-[…] (SEQ ID NO:17; Labeled with FAM and non-fluoresent quencher, NFQ, at 5′ and 3′ ends, repsectively).
Male Wistar rats weighing 250 gm were anesthetized with ketamine/xylazine followed by implantation Alzet miniosmotic pumps administering vehicle (propylene glycocol), dexamethasone (0.7 mg/kg/day), or dexamethasone plus testosterone (28 mg/kg/day). […]

[4] = system: ARE reporter gene (MMTV hormone response element); test: ARE (MMTV hormone response element) luciferase reporter in C2C12 and C2C12.AR cells; type: cell-based
Description: The reporter genes pMAF3.1, pMAF2.4, pMAF948, pMAF400, and pMAF400-241 express firefly luciferase under the control of promoter regions of the human MAFbx gene and are described in Example 1. The rARC562G vector, encoding rat AR with a C562->G mutation in the first zinc binding module that disrupts binding of AR to DNA was described by Palvimo et al. (Mol Endocrinol 7: 1399-1407, 1993) pAR.4RKM (expressing AR with 4 R/K->M mutations in the nuclear localization sequence that is unable to enter the nucleus) and pAR.ABC (lacking the ligand binding domain) were described by Zhou et al. (J Biol Chem 269: 13115-13123, 1994). The pBabe.puro retroviral backbone described by Morgenstern and Land (Nucleic Acids Res 18: 3587-3596, 1990) was modified by introduction of a Not1 site. […]
Cells were seeded into wells of 24-well plates (5×10^5 cells/well) then maintained overnight in DMEM with 10% CDS-FBS. […] Cells were maintained for an additional 24 hours, at which time both firefly and renilla luciferase activity were determined using the Dual Luciferase Assay (Promega, Madison, Wis.) and a Berthold 96-well plate luminometer. […]
To determine whether C2C12 cells expressed AR, total RNA from these cells was extracted and analyzed by real-time PCR and compared to levels of AR mRNA in gastrocnemius muscle from male mice. […]

SMILES	IGFBP-4 expression ([1]; denervated muscle, any time tested)	IGFBP-4 expression ([1]; sham-denervated muscle)	myogenin expression ([2]; denervated muscle, 3 or 7-days administration)	fall in myogenin expression ([2]; denervated muscle, 28-days infusion) [%]	elevation of myogenin expression ([2]; muscle not stated (contrasted with denervated muscle), day 28 of the infusion)	myogenin expression ([2]; muscle not stated, first 7-days after starting administration)	effects of dexamethasone on MAFbx expression in gastrocnemius [3]	luciferase expression by ARE-Luc reporter ([4]; C2C12.AR cells (human AR))	increase in luciferase expression over baseline ([4]; wild-type C2C12 cells, MMTV hormone response element reporter)
C[C@]12CC[C@H]3[C@@H](CCC4=CC(=O)CC[C@@H]43)[C@@H]1CC[C@@H]2O [nandrolone]	did not significantly alter	did not appreciably alter	No effects	32	approximately 2 fold	did not alter	–	–	–
C[C@]12CC[C@H]3[C@@H](CCC4=CC(=O)CC[C@@]43C)[C@@H]1CC[C@@H]2O [testosterone]	–	–	–	–	–	–	completely blocked	marked increase	about 2 fold
